{
  "source": "paper PMC5065719",
  "about": "(Biochemistry, 2013)",
  "target": "IscU (Azotobacter vinelandii, UniProt O31270)",
  "sequence (O31270 whole entry)": "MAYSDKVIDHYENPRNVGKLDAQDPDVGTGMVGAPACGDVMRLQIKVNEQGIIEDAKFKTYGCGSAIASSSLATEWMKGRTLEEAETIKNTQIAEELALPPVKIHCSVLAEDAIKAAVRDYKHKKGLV",
  "assay": "UV/Vis absorption and visible CD during in vitro Fe-S cluster assembly",
  "type": "binding",
  "conditions": "anaerobic, IscS, Cys, DTT, cluster assembled in situ",
  "data": [
    {"compound": "[S]1[Fe][S][Fe]1", "note": "[[2Fe-2S] cluster]", "values": [
      {"measurement": "UV/Vis absorption and visible CD during in vitro Fe-S cluster assembly", "result": "shows the formation of the [2Fe-2S] cluster as previously reported for IscU (A)"}
    ]}
  ]
}
